# Test results: US9469617B2, “Molecules having certain pesticidal utilities, and intermediates, compositions, and processes related thereto” (priority 2014, dated 2016)
# Where two headings read alike, the source gives them in different places.
# Assays:
# Format in all cases: in vivo
# [1] = test system: Yellow Fever Mosquito (YFM) (Aedes aegypti); assay: Bioassay on Yellow Fever Mosquito (YFM) larvae, 96-well plate; conditions: about 1 day-old larvae, master plate 4000 ppm in DMSO diluted, scored on mortality after 3 days
# In short: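 Compounds from 4000 ppm DMSO master solutions, diluted in 90:10 water:acetone, dispensed into wells and infested with about 1-day-old larvae in liver-powder water. Held covered at room temperature for 3 days, then each well scored for mortality; 6 replicate plates per master.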
# [2] = test system: Beet Armyworm (BAW) (Spodoptera exigua); assay: Bioassay on Beet Armyworm (BAW), 128-well diet tray assay; conditions: 168 h, 50 μg/cm^2 on artificial diet, second instar larvae, five to seven days, 25° C., read-out: BAW % Control (or Mortality) rating
# In short: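 Artificial diet was surface-treated with 50 μg/cm^2 compound in 90:10 acetone-water and dried, then infested with one to five second-instar larvae per well. Trays were held 5–7 days at 25° C, 14:10 light-dark. Percent mortality was averaged over eight wells.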
# [3] = test system: Cabbage Looper (CL) (Trichoplusia ni); assay: Bioassay on Cabbage Looper (CL), 128-well diet tray assay; conditions: 168 h, 50 μg/cm^2 on artificial diet, second instar larvae, five to seven days, 25° C., read-out: CL % Control (or Mortality) rating
# In short: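 Second-instar larvae (one to five per well) placed on artificial diet treated with 50 μg/cm^2 compound in 90:10 acetone-water, dried, eight wells per compound. Held at 25 °C, 14:10 light-dark for five to seven days; percent mortality per well, averaged over the eight wells.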
# [4] = test system: Green Peach Aphid (GPA) (Myzus persicae); assay: Bioassay on Green Peach Aphid (GPA), foliar spray on cabbage seedlings; conditions: 72 h, 200 ppm foliar spray on cabbage seedlings, graded after three days, Abbott corrected % control, read-out: GPA % Control (or Mortality) rating
# Experimental: Certain molecules disclosed in this document were tested against GPA using procedures described in the following example. In the reporting of the results, the “GPA & YFM Rating Table” was used (See Table Section).
# Cabbage seedlings grown in 3-inch pots, with 2-3 small (3-5 cm) true leaves, were used as test substrate. The seedlings were infested with 20-50 GPA (wingless adult and nymph stages) one day prior to chemical application. Four pots with individual seedlings were used for each treatment. Test compounds (2 mg) were dissolved in 2 mL of acetone/MeOH (1:1) solvent, forming stock solutions of 1000 ppm test compound. The stock solutions were diluted 5× with 0.025% Tween 20 in water to obtain the solution at 200 ppm test compound. A hand-held aspirator-type sprayer was used for spraying a solution to both sides of […] leaves until runoff. Reference plants (solvent check) were sprayed with the diluent only containing 20% by volume of acetone/MeOH (1:1) solvent. Treated plants were held in a holding room for three days at approximately 25° C. and ambient relative humidity (RH) prior to grading. Evaluation was conducted by counting the number of live aphids per plant under a microscope. Percent Control was measured by using Abbott's correction formula (W. S. Abbott, “A Method of Computing the Effectiveness of an Insecticide” J. Econ. Entomol. 18 (1925), pp. 265-267) as follows. Corrected % Control=100*(X−Y)/X where X=No. of live aphids on solvent check plants and Y=No. of live aphids on treated plants. The results are indicated in the table entitled “Table ABC: Assay Results” and “Table ABCD: Assay Results” (See Table Section).
Structure (SMILES),YFM % Control (or Mortality) rating ([1]; Table ABCD),mortality at 50 µg/cm2 ([2]; Table ABCD) [%],mortality at 50 µg/cm2 ([3]; Table ABCD) [%],mortality at 200 ppm ([4]; Table ABCD) [%],YFM % Control (or Mortality) rating ([1]; Table ABC),mortality at 50 µg/cm2 ([2]; Table ABC) [%],mortality at 50 µg/cm2 ([3]; Table ABC) [%],mortality at 200 ppm ([4]; Table ABC) [%]
"CC(C)(C)OC(=O)NC1Cc2ccc(-c3ncn(-c4ccc(OC(F)(F)F)cc4)n3)cc2C1 (stereo not shown) [C1, tert-butyl (5-(1-(4-(trifluoromethoxy)phenyl)-1H-1,2,4-triazol-3-yl)-2,3-dihydro-1H-inden-2-yl)carbamate]",A (80-100),50 to 100,50 to 100,0 to 80,,,,
"Cc1ccc(C(C)C)c(N2C(=O)CS/C2=N\C(=O)NC2Cc3ccc(-c4ncn(-c5ccc(OC(F)(F)F)cc5)n4)cc3C2)c1 (stereo not shown) [F2, (Z)-1-(3-(2-isopropyl-5-methylphenyl)-4-oxothiazolidin-2-ylidene)-3-(5-(1-(4-(trifluoromethoxy)phenyl)-1H-1,2,4-triazol-3-yl)-2,3-dihydro-1H-inden-2-yl)urea]",,,,,A (80-100),50 to 100,50 to 100,0 to 80
"Cc1ccc(C(C)C)c(N2C(=O)CS/C2=N\C(=O)NC2Cc3ccc(-c4ncn(-c5ccc(OC(F)(F)C(F)(F)F)cc5)n4)cc3C2)c1 (stereo not shown) [F4, (Z)-1-(3-(2-Isopropyl-5-methylphenyl)-4-oxothiazolidin-2-ylidene)-3-(5-(1-(4-(perfluoroethoxy)phenyl)-1H-1,2,4-triazol-3-yl)-2,3-dihydro-1H-inden-2-yl)urea]",,,,,A (80-100),50 to 100,50 to 100,0 to 80
"CCc1ccccc1N1C(=O)CS/C1=N\C(=O)NC1Cc2ccc(-c3ncn(-c4ccc(OC(F)(F)F)cc4)n3)cc2C1 (stereo not shown) [F12, (Z)-1-(3-(2-Ethylphenyl)-4-oxothiazolidin-2-ylidene)-3-(5-(1-(4-(trifluoromethoxy)phenyl)-1H-1,2,4-triazol-3-yl)-2,3-dihydro-1H-inden-2-yl)urea]",,,,,A (80-100),50 to 100,50 to 100,0
"CCCc1ccc(C)cc1N1C(=O)CS/C1=N\C(=O)NC1Cc2ccc(-c3ncn(-c4ccc(OC(F)(F)F)cc4)n3)cc2C1 (stereo not shown) [F13, (Z)-1-(3-(5-Methyl-2-propylphenyl)-4-oxothiazolidin-2-ylidene)-3-(5-(1-(4-(trifluoromethoxy)phenyl)-1H-1,2,4-triazol-3-yl)-2,3-dihydro-1H-inden-2-yl)urea]",,,,,A (80-100),50 to 100,50 to 100,0 to 80
"O=C(/N=C1\SCC(=O)N1c1ccccc1C1CC1)NC1Cc2ccc(-c3ncn(-c4ccc(OC(F)(F)F)cc4)n3)cc2C1 (stereo not shown) [F15, (Z)-1-(3-(2-Cyclopropylphenyl)-4-oxothiazolidin-2-ylidene)-3-(5-(1-(4-(trifluoromethoxy)phenyl)-1H-1,2,4-triazol-3-yl)-2,3-dihydro-1H-inden-2-yl)urea]",,,,,A (80-100),50 to 100,50 to 100,0 to 80
"CC1S/C(=N\C(=O)NC2Cc3ccc(-c4ncn(-c5ccc(OC(F)(F)F)cc5)n4)cc3C2)N(c2ccccc2C(C)C)C1=O (stereo not shown) [FA2, (Z)-1-(3-(2-isopropylphenyl)-5-methyl-4-oxothiazolidin-2-ylidene)-3-(5-(1-(4-(trifluoromethoxy)phenyl)-1H-1,2,4-triazol-3-yl)-2,3-dihydro-1H-inden-2-yl)urea]",,,,,A (80-100),50 to 100,50 to 100,0 to 80
"Cc1ccc(C)c(N2C(=O)CS/C2=N\C(=O)NC2CCc3cc(-c4ncn(-c5ccc(OC(F)(F)F)cc5)n4)ccc3C2)c1 (stereo not shown) [P32, (Z)-1-(3-(2,5-Dimethylphenyl)-4-oxothiazolidin-2-ylidene)-3-(6-(1-(4-(trifluoromethoxy)phenyl)-1H-1,2,4-triazol-3-yl)-1,2,3,4-tetrahydronaphthalen-2-yl)urea]",,,,,B (More than 0-Less than 80),50 to 100,50 to 100,
"CC(C)c1ccc(Cl)cc1N1C(=O)CS/C1=N\C(=O)NC1CCc2cc(-c3ncn(-c4ccc(OC(F)(F)F)cc4)n3)ccc2C1 (stereo not shown) [P33, (Z)-1-(3-(5-Chloro-2-isopropylphenyl)-4-oxothiazolidin-2-ylidene)-3-(6-(1-(4-(trifluoromethoxy)phenyl)-1H-1,2,4-triazol-3-yl)-1,2,3,4-tetrahydronaphthalen-2-yl)urea]",,,,,A (80-100),50 to 100,50 to 100,
"CCCc1ccc(C)cc1N1C(=O)CS/C1=N\C(=O)NC1CCc2cc(-c3ncn(-c4ccc(OC(F)(F)F)cc4)n3)ccc2C1 (stereo not shown) [P34, (Z)-1-(3-(5-Methyl-2-propylphenyl)-4-oxothiazolidin-2-ylidene)-3-(6-(1-(4-(trifluoromethoxy)phenyl)-1H-1,2,4-triazol-3-yl)-1,2,3,4-tetrahydronaphthalen-2-yl)urea]",,,,,D (No activity noticed in this bioassay),50 to 100,50 to 100,
"COc1ccc(N2C(=O)CS/C2=N\C(=O)NC2CCc3cc(-c4ncn(-c5ccc(OC(F)(F)F)cc5)n4)ccc3C2)c(C)c1 (stereo not shown) [P35, (Z)-1-(3-(4-methoxy-2-methylphenyl)-4-oxothiazolidin-2-ylidene)-3-(6-(1-(4-(trifluoromethoxy)phenyl)-1H-1,2,4-triazol-3-yl)-1,2,3,4-tetrahydronaphthalen-2-yl)urea]",,,,,A (80-100),50 to 100,50 to 100,
"CCc1cccc(C)c1N1C(=O)CS/C1=N\C(=O)NC1CCc2cc(-c3ncn(-c4ccc(OC(F)(F)F)cc4)n3)ccc2C1 (stereo not shown) [P36, (Z)-1-(3-(2-Ethyl-6-methylphenyl)-4-oxothiazolidin-2-ylidene)-3-(6-(1-(4-(trifluoromethoxy)phenyl)-1H-1,2,4-triazol-3-yl)-1,2,3,4-tetrahydronaphthalen-2-yl)urea]",,,,,A (80-100),50 to 100,50 to 100,
"Cc1ccc(Cl)c(N2C(=O)CS/C2=N\C(=O)NC2CCc3cc(-c4ncn(-c5ccc(OC(F)(F)F)cc5)n4)ccc3C2)c1 (stereo not shown) [P37, (Z)-1-(3-(2-Chloro-5-methylphenyl)-4-oxothiazolidin-2-ylidene)-3-(6-(1-(4-(trifluoromethoxy)phenyl)-1H-1,2,4-triazol-3-yl)-1,2,3,4-tetrahydronaphthalen-2-yl)urea]",,,,,D (No activity noticed in this bioassay),50 to 100,50 to 100,
"COc1ccc(C)cc1N1C(=O)CS/C1=N\C(=O)NC1CCc2cc(-c3ncn(-c4ccc(OC(F)(F)F)cc4)n3)ccc2C1 (stereo not shown) [P38, (Z)-1-(3-(2-Methoxy-5-methylphenyl)-4-oxothiazolidin-2-ylidene)-3-(6-(1-(4-(trifluoromethoxy)phenyl)-1H-1,2,4-triazol-3-yl)-1,2,3,4-tetrahydronaphthalen-2-yl)urea]",,,,,A (80-100),50 to 100,50 to 100,
